# Key:
# Type in all cases: functional
# Staphylococcus aureus = assay: Antimicrobial activity against Staphylococcus aureus MTCC 96 by broth microdilution technique
# Pseudomonas aeruginosa = assay: Antimicrobial activity against Pseudomonas aeruginosa MTCC 1688 by broth microdilution technique
# Escherichia coli = assay: Antimicrobial activity against Escherichia coli MTCC 443 by broth microdilution technique
# Candida albicans = assay: Antimicrobial activity against Candida albicans MTCC 227 by broth serial dilution technique
# Bacillus subtilis = assay: Antimicrobial activity against Bacillus subtilis MTCC 441 by broth microdilution technique
Compound,MIC50 (Staphylococcus aureus) [µg/mL],MIC50 (Pseudomonas aeruginosa) [µg/mL],MIC50 (Escherichia coli) [µg/mL],MIC50 (Candida albicans) [µg/mL],MIC50 (Bacillus subtilis) [µg/mL]
Cc1ccc(O)c(C(=O)c2cnn(-c3ccc(F)c(F)c3)c2)c1,500,250,500,1000,500
COC1=CC(=O)C[C@@H](C)[C@]12Oc1c(Cl)c(OC)cc(OC)c1C2=O [GRISEOFULVIN],,,,500,
Cc1ccc(/C(=N\O)c2cnn(-c3ccc(F)c(F)c3)c2)c(O)c1,250,50,25,500,500
Cc1ccc2oc(-c3cnn(-c4ccc(F)c(F)c4)c3)nc2c1,50,62.5,500,500,200
GENTAMICIN,0.25,1,0.05,,1
Cc1cc(C)c(O)c(C(=O)c2cnn(-c3ccc(F)c(F)c3)c2)c1,500,250,500,1000,500
CCn1cc(C(=O)O)c(=O)c2cc(F)c(N3CCNCC3)cc21 [NORFLOXACIN],10,10,10,,100
Fc1ccc(-n2cc(-c3nc4cc(Cl)ccc4o3)cn2)cc1F,125,125,100,500,200
O=C(O)c1cn(C2CC2)c2cc(N3CCNCC3)c(F)cc2c1=O [CIPROFLOXACIN],50,25,25,,50
O=C(c1cnn(-c2ccc(F)c(F)c2)c1)c1cc(F)cc(Cl)c1O,1000,500,500,250,500
O/N=C(/c1cnn(-c2ccc(F)c(F)c2)c1)c1ccccc1O,> 1000,500,500,1000,> 1000
O/N=C(/c1cnn(-c2ccc(F)c(F)c2)c1)c1cc(F)ccc1O,500,500,500,1000,250
O=C(c1cnn(-c2ccc(F)c(F)c2)c1)c1cc(Br)ccc1O,125,500,500,> 1000,100
Cc1ccc(C(=O)c2cnn(-c3ccc(F)c(F)c3)c2)c(O)c1,200,62.5,125,500,100
O=C(c1cnn(-c2ccc(F)c(F)c2)c1)c1cc(Cl)ccc1O,1000,500,250,500,500
O=C(N[C@H](CO)[C@H](O)c1ccc([N+](=O)[O-])cc1)C(Cl)Cl [CHLORAMPHENICOL],50,50,50,,50
Fc1ccc(-n2cc(-c3nc4ccccc4o3)cn2)cc1F,125,100,125,1000,200
O/N=C(/c1cnn(-c2ccc(F)c(F)c2)c1)c1cc(Br)ccc1O,500,100,200,500,1000
O=C(c1cnn(-c2ccc(F)c(F)c2)c1)c1ccccc1O,500,555,250,100,12.5
NYSTATIN,,,,100,
Fc1ccc2oc(-c3cnn(-c4ccc(F)c(F)c4)c3)nc2c1,500,50,250,250,200
Cc1ccc2nc(-c3cnn(-c4ccc(F)c(F)c4)c3)oc2c1,200,500,200,500,25
O/N=C(/c1cnn(-c2ccc(F)c(F)c2)c1)c1cc(Cl)ccc1O,100,125,12.5,1000,62.5
CC1(C)S[C@@H]2[C@H](NC(=O)[C@H](N)c3ccccc3)C(=O)N2[C@H]1C(=O)O [AMPICILLIN],250,100,100,,250
O=C(c1cnn(-c2ccc(F)c(F)c2)c1)c1cc(F)ccc1O,100,50,62.5,500,62.5
Fc1ccc(-n2cc(-c3nc4cc(Br)ccc4o3)cn2)cc1F,250,250,250,500,250
